According to ChEMBL document CHEMBL6078724, “Discovery of the first examples of right open reading frame kinase 2 (RIOK2) molecular glue degraders” (Eur J Med Chem, 2025):
pIC50: −log10 of the molar value. Calls of active or inactive are those of the source. The calls are words filed in the database; no cut-off is given here.

What was measured:
[1] = target: T1, E3 ubiquitin-protein ligase RNF126/Serine/threonine-protein kinase RIO2 (Homo sapiens, UniProt Q9BVS4+Q9BV68); assay: Molecular glue degradation activity at RNF126/RIOK2 in human MOLT-4 cells assessed as induction protein degradation incubated for 12 hrs by immunoblot analysis; format: cell-based
[2] = target: T1, E3 ubiquitin-protein ligase RNF126/Serine/threonine-protein kinase RIO2; assay: Molecular glue degradation activity at RNF126/RIOK2 in human MOLT-4 cells assessed as induction protein degradation incubated for 12 hrs by immunoblot analysis relative to control; format: cell-based
Target sequence in this assay (Q9BV68 2-311 partner limits assumed): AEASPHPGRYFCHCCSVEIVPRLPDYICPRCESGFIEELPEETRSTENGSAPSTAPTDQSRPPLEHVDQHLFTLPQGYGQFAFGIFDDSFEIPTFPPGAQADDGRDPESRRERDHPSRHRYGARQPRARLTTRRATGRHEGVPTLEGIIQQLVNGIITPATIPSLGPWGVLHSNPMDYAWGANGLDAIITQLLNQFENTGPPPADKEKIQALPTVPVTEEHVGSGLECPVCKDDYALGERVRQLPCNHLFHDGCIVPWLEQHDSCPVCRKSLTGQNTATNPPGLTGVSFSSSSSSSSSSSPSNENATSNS
Target sequence in this assay (Q9BVS4 whole entry): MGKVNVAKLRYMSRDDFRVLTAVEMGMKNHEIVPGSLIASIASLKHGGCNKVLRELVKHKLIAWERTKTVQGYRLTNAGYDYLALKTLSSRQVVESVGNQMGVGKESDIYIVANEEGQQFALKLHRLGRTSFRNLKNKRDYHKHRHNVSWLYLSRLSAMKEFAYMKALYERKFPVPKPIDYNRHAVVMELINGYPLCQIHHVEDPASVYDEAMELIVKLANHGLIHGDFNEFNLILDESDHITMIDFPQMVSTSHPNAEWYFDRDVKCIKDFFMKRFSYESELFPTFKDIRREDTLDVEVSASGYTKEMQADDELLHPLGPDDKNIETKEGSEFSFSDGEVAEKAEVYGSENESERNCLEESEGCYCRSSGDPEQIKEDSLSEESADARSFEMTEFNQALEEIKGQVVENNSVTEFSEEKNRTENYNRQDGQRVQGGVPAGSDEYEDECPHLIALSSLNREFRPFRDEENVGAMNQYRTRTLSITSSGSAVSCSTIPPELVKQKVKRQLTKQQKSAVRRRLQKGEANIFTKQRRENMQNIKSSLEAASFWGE

[3] = target: T1, E3 ubiquitin-protein ligase RNF126/Serine/threonine-protein kinase RIO2; assay: Molecular glue degradation activity at RNF126/RIOK2 in human MOLT-4 cells assessed as induction protein degradation at 1 uM incubated for 24 hrs by immunoblot analysis relative to control; format: cell-based
Target sequence in this assay (Q9BV68 2-311 partner limits assumed): as the sequence (Q9BV68 2-311 partner limits assumed) above
Target sequence in this assay (Q9BVS4 whole entry): as the sequence (Q9BVS4 whole entry) above

[4] = target: T1, E3 ubiquitin-protein ligase RNF126/Serine/threonine-protein kinase RIO2; assay: Molecular glue degradation activity at RNF126/RIOK2 in CHX-treated human MOLT-4 cells assessed as half life of RIOK2 at 2 uM by immunoblot analysis (reference value: 12.5 hrs); format: cell-based
Target sequence in this assay (Q9BV68 2-311 partner limits assumed): as the sequence (Q9BV68 2-311 partner limits assumed) above
Target sequence in this assay (Q9BVS4 whole entry): as the sequence (Q9BVS4 whole entry) above

[5] = target: T1, E3 ubiquitin-protein ligase RNF126/Serine/threonine-protein kinase RIO2; assay: Molecular glue degradation activity at RNF126/RIOK2 in MG132-treated human MOLT-4 cells assessed as induction protein degradation at 1 uM incubated for 12 hrs by immunoblot analysis; format: cell-based
Target sequence in this assay (Q9BV68 2-311 partner limits assumed): as the sequence (Q9BV68 2-311 partner limits assumed) above
Target sequence in this assay (Q9BVS4 whole entry): as the sequence (Q9BVS4 whole entry) above

[6] = target: T1, E3 ubiquitin-protein ligase RNF126/Serine/threonine-protein kinase RIO2; assay: Molecular glue degradation activity at RNF126/RIOK2 in MLN4924-treated human MOLT-4 cells assessed as induction protein degradation at 1 uM incubated for 12 hrs by immunoblot analysis; format: cell-based
Target sequence in this assay (Q9BV68 2-311 partner limits assumed): as the sequence (Q9BV68 2-311 partner limits assumed) above
Target sequence in this assay (Q9BVS4 whole entry): as the sequence (Q9BVS4 whole entry) above

[7] = target: T1, E3 ubiquitin-protein ligase RNF126/Serine/threonine-protein kinase RIO2; assay: Molecular glue degradation activity at RNF126/RIOK2 in JP-2-196-treated human MOLT-4 cells assessed as induction protein degradation at 1 uM incubated for 12 hrs by immunoblot analysis; format: cell-based
Target sequence in this assay (Q9BV68 2-311 partner limits assumed): as the sequence (Q9BV68 2-311 partner limits assumed) above
Target sequence in this assay (Q9BVS4 whole entry): as the sequence (Q9BVS4 whole entry) above

[8] = target: T1, E3 ubiquitin-protein ligase RNF126/Serine/threonine-protein kinase RIO2; assay: Molecular glue degradation activity at RNF126/RIOK2 in human MOLT-4 cells assessed as increase in ubiquitination of RIOK2 at 1 uM incubated for 10 hrs by immunoblot analysis; format: cell-based
[9] = target: T1, E3 ubiquitin-protein ligase RNF126/Serine/threonine-protein kinase RIO2; assay: Molecular glue degradation activity at RNF126/RIOK2 in human U-937 cells assessed as induction protein degradation by immunoblot analysis; format: cell-based
Target sequence in this assay (Q9BVS4 whole entry): as above
Target sequence in this assay (Q9BV68 whole entry): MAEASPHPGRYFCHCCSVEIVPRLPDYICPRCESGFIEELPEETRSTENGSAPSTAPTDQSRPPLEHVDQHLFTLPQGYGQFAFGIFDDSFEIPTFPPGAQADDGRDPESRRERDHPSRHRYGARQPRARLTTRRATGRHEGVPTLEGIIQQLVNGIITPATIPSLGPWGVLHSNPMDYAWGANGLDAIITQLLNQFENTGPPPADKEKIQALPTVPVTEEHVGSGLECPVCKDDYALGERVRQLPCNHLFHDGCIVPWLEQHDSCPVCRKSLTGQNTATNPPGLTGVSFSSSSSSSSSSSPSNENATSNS

[10] = target: T1, E3 ubiquitin-protein ligase RNF126/Serine/threonine-protein kinase RIO2; assay: Molecular glue degradation activity at RNF126/RIOK2 in human HL-60 cells assessed as induction protein degradation by immunoblot analysis; format: cell-based
Target sequence in this assay (Q9BVS4 whole entry): as the sequence (Q9BVS4 whole entry) above
Target sequence in this assay (Q9BV68 whole entry): as the sequence (Q9BV68 whole entry) above

[11] = target: T1, E3 ubiquitin-protein ligase RNF126/Serine/threonine-protein kinase RIO2; assay: Molecular glue degradation activity at RNF126/RIOK2 in human OCILY3 cells assessed as induction protein degradation by immunoblot analysis; format: cell-based
Target sequence in this assay (Q9BVS4 whole entry): as the sequence (Q9BVS4 whole entry) above
Target sequence in this assay (Q9BV68 whole entry): as the sequence (Q9BV68 whole entry) above

[12] = target: T1, E3 ubiquitin-protein ligase RNF126/Serine/threonine-protein kinase RIO2; assay: Molecular glue degradation activity at RNF126/RIOK2 in human ASPC1 cells assessed as induction protein degradation by immunoblot analysis; format: cell-based
Target sequence in this assay (Q9BVS4 whole entry): as the sequence (Q9BVS4 whole entry) above
Target sequence in this assay (Q9BV68 whole entry): as the sequence (Q9BV68 whole entry) above

[13] = target: T1, E3 ubiquitin-protein ligase RNF126/Serine/threonine-protein kinase RIO2; assay: Molecular glue degradation activity at RNF126/RIOK2 in human A549 cells assessed as induction protein degradation by immunoblot analysis; format: cell-based
Target sequence in this assay (Q9BVS4 whole entry): as the sequence (Q9BVS4 whole entry) above
Target sequence in this assay (Q9BV68 whole entry): as the sequence (Q9BV68 whole entry) above

[14] = target: T1, E3 ubiquitin-protein ligase RNF126/Serine/threonine-protein kinase RIO2; assay: Molecular glue degradation activity at RNF126/RIOK2 in HEK293 cells assessed as induction protein degradation by immunoblot analysis; format: cell-based
Target sequence in this assay (Q9BVS4 whole entry): as the sequence (Q9BVS4 whole entry) above
Target sequence in this assay (Q9BV68 whole entry): as the sequence (Q9BV68 whole entry) above

[15] = target: T1, E3 ubiquitin-protein ligase RNF126/Serine/threonine-protein kinase RIO2; assay: Molecular glue degradation activity at RNF126/RIOK2 in human U-937 cells assessed as induction protein degradation by immunoblot analysis relative to control; format: cell-based
[16] = target: T1, E3 ubiquitin-protein ligase RNF126/Serine/threonine-protein kinase RIO2; assay: Molecular glue degradation activity at RNF126/RIOK2 in human OCILY3 cells assessed as induction protein degradation by immunoblot analysis relative to control; format: cell-based
[17] = system: U-937; assay: Antiproliferative activity against human U-937 cells incubated for 72 hrs by CCK8 assay; format: functional, cell-based; conditions: U-937, 72 h
[18] = system: MOLT-4; assay: Antiproliferative activity against human MOLT-4 cells incubated for 72 hrs by CCK8 assay; format: functional, cell-based; conditions: MOLT-4, 72 h
[19] = system: HL-60; assay: Antiproliferative activity against human HL-60 cells incubated for 72 hrs by CCK8 assay; format: functional, cell-based; conditions: HL-60, 72 h
[20] = system: OCI-Ly3; assay: Antiproliferative activity against human OCILY3 cells incubated for 72 hrs by CCK8 assay; format: functional, cell-based; conditions: OCI-Ly3, 72 h
[21] = system: ASPC1; assay: Antiproliferative activity against human ASPC1 cells incubated for 72 hrs by CCK8 assay; format: functional, cell-based; conditions: ASPC1, 72 h
[22] = system: HeLa; assay: Antiproliferative activity against human HeLa cells incubated for 72 hrs by CCK8 assay; format: functional, cell-based
[23] = Antiproliferative activity against mouse NIH3T3 cells incubated for 72 hrs by CCK8 assay; format: toxicity, cell-based
[24] = Antiproliferative activity against human MRC5 cells incubated for 72 hrs by CCK8 assay; format: toxicity, cell-based
[25] = target: Serine/threonine-protein kinase RIO2 (Homo sapiens, UniProt Q9BVS4); assay: Inhibition of RIOK2 (unknown origin) ATPase activity incubated for 2 hrs in presence of ATP by ADP-Glo assay
[26] = target: T1, E3 ubiquitin-protein ligase RNF126/Serine/threonine-protein kinase RIO2; assay: Molecular glue degradation activity at RNF126/RIOK2 in human MOLT-4 cells assessed as decrease in AKT level at 500 nM incubated for 12 hrs by immunoblot analysis; format: cell-based
[27] = system: MOLT-4; assay: Induction of apoptosis in human MOLT-4 cells at 900 nM incubated for 48 hrs by Annexin V-FITC/PI staining based flow cytometry relative to control; format: functional
[28] = system: MOLT-4; assay: Induction of cell cycle arrest in human MOLT-4 cells assessed as accumulation at G2/M phase incubated for 24 hrs by PI staining based flow cytometry; format: functional; conditions: dose <= 900.0 nM
[29] = system: MOLT-4; assay: Induction of apoptosis in human MOLT-4 cells incubated for 48 hrs by Annexin V-FITC/PI staining based flow cytometry; format: functional, cell-based; conditions: dose <= 900.0 nM
[30] = system: MOLT-4; assay: Induction of cell cycle arrest in human MOLT-4 cells assessed as decrease in cyclin B1 level by Western blot analysis; format: functional, cell-based; conditions: dose <= 900.0 nM
[31] = system: MOLT-4; assay: Induction of cell cycle arrest in human MOLT-4 cells assessed as decrease in CDK2 level by Western blot analysis; format: functional, cell-based; conditions: dose <= 900.0 nM
[32] = system: MOLT-4; assay: Induction of apoptosis in human MOLT-4 cells assessed as decrease in PARP level by Western blot analysis; format: functional, cell-based; conditions: dose <= 900.0 nM
[33] = system: MOLT-4; assay: Induction of apoptosis in human MOLT-4 cells assessed as increase in cleaved caspase-9 level by Western blot analysis; format: functional, cell-based; conditions: dose <= 900.0 nM
[34] = AUClast in Sprague-Dawley rat at 5 mg/kg, iv measured for 24 hrs; format: ADME, organism-based; conditions: in vivo
[35] = Half life in Sprague-Dawley rat at 5 mg/kg, iv measured for 24 hrs; format: ADME, organism-based; conditions: in vivo
[36] = Cmax in Sprague-Dawley rat at 5 mg/kg, iv measured for 24 hrs; format: ADME, organism-based; conditions: in vivo
[37] = Clearance in Sprague-Dawley rat at 5 mg/kg, iv measured for 24 hrs; format: ADME, organism-based; conditions: in vivo
[38] = AUClast in Sprague-Dawley rat at 10 mg/kg, ip measured for 24 hrs; format: ADME, organism-based; conditions: in vivo
[39] = Half life in Sprague-Dawley rat at 10 mg/kg, ip measured for 24 hrs; format: ADME, organism-based; conditions: in vivo
[40] = system: MOLT-4; assay: Antitumor activity against human MOLT-4 cells xenografted in SCID-CB17 mouse at 10 mg/kg, ip for 18 days relative to control; format: functional; conditions: MOLT-4, 432 h, time 18 day, read-out: TGI
[41] = Toxicity in SCID-CB17 mouse xenografted with human MOLT-4 cells assessed as body weight loss at 10 mg/kg, ip for 18 days; format: organism-based; conditions: in vivo, 432 h, time 18 day
[42] = system: Mus musculus; assay: In vivo molecular glue degradation activity at RNF126/RIOK2 in SCID-CB17 mouse xenografted with human MOLT-4 cells assessed as induction of RIOK2 degradation in tumor at 10 mg/kg, ip for 18 days measured after 4 hrs post-last dose; format: functional, organism-based; conditions: time 436.0 hrs

Sequence of Serine/threonine-protein kinase RIO2 (Q9BVS4 whole entry): as the sequence (Q9BVS4 whole entry) above

Question: Which DC50 [1] does the source give for `COc1ccc(-c2ccc3[nH]c(=O)c4nnn(-c5ccc(N6CCN(C(=O)/C=C/C(=O)c7ccc(F)cc7)CC6)c(C(F)(F)F)c5)c4c3c2)cn1` here?
Answer: Its DC50 is 410 nM.

Question: What about the Activity ([1]; dose <= 10.0 µM) of the same compound?
Answer: The Activity was “Dose-dependent-effect”.

Question: And the Emax [2]?
Answer: The Emax was 83.4%.

Question: And the Emax [3]?
Answer: Its Emax is 94.8%.

Question: And the T1/2 [4]?
Answer: The T1/2 was 9.6 h.

Question: What about the Activity [5] of the same compound?
Answer: Its Activity is “inactive”.

Question: And the Activity [6]?
Answer: Its Activity is “inactive”.

Question: And the Activity [7]?
Answer: The Activity was “inactive”.

Question: And the Activity [8]?
Answer: Its Activity is “Active”.

Question: What about the DC50 [9] of the same compound?
Answer: The DC50 was 1300 nM.

Question: What about the DC50 [10] of the same compound?
Answer: The DC50 was 550 nM.

Question: What about the DC50 [11] of the same compound?
Answer: Its DC50 is 450 nM.

Question: And the DC50 [12]?
Answer: Its DC50 is greater than 10000 nM.

Question: And the DC50 [13]?
Answer: Its DC50 is greater than 10000 nM.

Question: And the DC50 [14]?
Answer: The DC50 was greater than 10000 nM.

Question: What about the Emax [15] of the same compound?
Answer: Its Emax is 60.4%.

Question: And the Emax [16]?
Answer: Its Emax is 66.9%.

Question: What about the pIC50 [17] of the same compound?
Answer: The pIC50 was 6.39.

Question: And the pIC50 [18]?
Answer: The pIC50 was 6.89.

Question: And the pIC50 [19]?
Answer: The pIC50 was 6.47.

Question: What about the pIC50 [20] of the same compound?
Answer: Its pIC50 is 6.92.

Question: And the pIC50 [21]?
Answer: Its pIC50 is 5.95.

Question: What about the pIC50 [22] of the same compound?
Answer: The pIC50 was 6.24.

Question: What about the IC50 at 72 h [23] of the same compound?
Answer: The IC50 at 72 h was 1060 nM.

Question: What about the IC50 at 72 h [24] of the same compound?
Answer: The IC50 at 72 h was 1090 nM.

Question: And the pIC50 [25]?
Answer: Its pIC50 is 7.01.

Question: And the Activity [26]?
Answer: Its Activity is “Active”.

Question: What about the Activity [27] of the same compound?
Answer: Its Activity is 57.11%.

Question: What about the Activity [28] of the same compound?
Answer: Its Activity is “Dose-dependent-effect”.

Question: What about the Activity [29] of the same compound?
Answer: Its Activity is “Dose-dependent-effect”.

Question: What about the Activity [30] of the same compound?
Answer: Its Activity is “Dose-dependent-effect”.

Question: What about the Activity [31] of the same compound?
Answer: Its Activity is “Dose-dependent-effect”.

Question: What about the Activity [32] of the same compound?
Answer: The Activity was “Dose-dependent-effect”.

Question: And the Activity [33]?
Answer: Its Activity is “Dose-dependent-effect”.

Question: What about the AUClast [34] of the same compound?
Answer: Its AUClast is 1210 ng·h/mL.

Question: What about the half-life [35] of the same compound?
Answer: The half-life was 0.6 h.

Question: And the Cmax [36]?
Answer: Its Cmax is 1440 ng/mL.

Question: What about the clearance [37] of the same compound?
Answer: Its clearance is 69.2 mL/min/kg.

Question: And the AUClast [38]?
Answer: The AUClast was 1200 ng·h/mL.

Question: What about the half-life [39] of the same compound?
Answer: The half-life was 8.1 h.

Question: What about the inhibition in vivo at 10 mg/kg [40] of the same compound?
Answer: Its inhibition in vivo at 10 mg/kg is 18.6%.

Question: What about the Activity [41] of the same compound?
Answer: Its Activity is “Non-toxic”.

Question: And the Activity [42]?
Answer: Its Activity is “Active”.
